The structures appear in SMILES notation.

The values that follow come from patent publication US20220079948A1, “COMPOSITIONS AND METHODS FOR SUPPRESSING AND/OR TREATING HIV-INFECTION AND/OR A RELATED CLINICAL CONDITION THEREOF” (Indiana University Research And Technology Corporation, priority 2018, published 2022).

Holding throughout (assay type): cell-based, human
For assay [1], the system named is Nef-ER cells (SupT1) migration towards S1P gradient. Description: Migration assay through collagen I-coated transwell chambers towards S1P. The settings on record: pretreatment with PAK2 inhibitor (5 μM); 4HT-activated Nef-ER cells; 100 nM S1P, 4 hours, 37° C.; FIG. 1B. As for the experimental part:
Migration assay. 4-Hydroxy tamoxifen (4HT) activated SupT1 control and Nef-ER cells were labeled with 2.5 uM Calcein-AM, washed using centrifugation and resuspended in phenol red free RPMI containing 0.1% fatty acid free BSA. These cells were loaded on the top chamber of collagen I-coated 4 micron transwell chambers as previously described (see, e.g., Iino J. et al. Platelet-derived sphingosine 1-phosphate induces migration of Jurkat T cells. LIPIDS HEALTH DIS 2014, 13:150). Briefly, cells were allowed to transmigrate,
This downregulation can lead to reduced chemotactic migration towards S1P as evidenced from experiments when 4 HT activated. SupT1I control and Nef-ER cells were tested for migration through collagen I-coated transwell chambers towards S1P gradients as previously described for Jurkat T cells (Iino J. et al. 2015).

Assay [2] deals with S1P1 surface expression in SupT1 cells stably expressing tamoxifen-inducible HIV-1SF2-Nef-estrogen receptor construct (Nef-ER). In words: S1P1 cell surface staining (fluorescence cytometry), tamoxifen-activated Nef-ER cells. Conditions: 5 μM FRAX597, Nef activated with tamoxifen (1 μM) 16 hours, FIG. 1A/1D. As for the experimental part:
(§1) S1P1 cell surface staining. For assessing Nef-dependent S1P1 regulations, stably transfected T cells (SupT) resulting in estrogen inducible Nef expression (Nef-ER) were used (see Lee J. H. et al. HIV Activates the Tyrosine Kinase Hck to Secrete ADAM Protease-Containing Extracellular Vesicles. EBIOMEDICINE 2018, 28:151-161). Upon treatment with tamoxifen (1 μM; established using CD4 downregulation) for 16 hours, fluorescence cytometry analysis was performed with an anti-S1P1 monoclonal antibody coupled to eFluor 660 (SW4GYPP, EBIOSCIENCE™).
(§2) HIV-Nef Leads to S1P1 Downregulation and Impaired Migration of T cells to S1P1 Gradients. The effect of Nef on regulation of S1P1 surface expression was examined using a recombinant human T cell line (SupT1), which stably expresses a tamoxifen inducible Nef (Nef-ER). Upon treatment with tamoxifen (1 μM) for 16 hours (as established for CD4 downregulation—see e.g., Walk S. F. et al., Design and use of an inducibly activated human immunodeficiency virus type 1 Nef to study immune modulation. J VIROL 2001; 75 (2):834-843), fluorescence cytometry analysis was performed with an anti-S1P1 monoclonal antibody coupled to eFluor 660 (SW4GYPP, EBIOSCIENCE™). […] To determine whether there was a specific pathway involved in HIV-Nef dependent S1P1, downregulation, PAK2 signaling was tested. […]

Assay [3] deals with S1P1 surface expression in SupT1 wildtype (SupT1) cells. In words: S1P1 cell surface staining (fluorescence cytometry), mock transfected / control SupT1 cells. Conditions: PAK2 inhibition (5 μM FRAX597) in mock transfected cells. As for the experimental part:
as §1, §2

With `CCn1c(=O)c(-c2ccc(-c3cncs3)cc2Cl)cc2cnc(Nc3ccc(N4CCN(C)CC4)cc3)nc21` [FRAX597], the “Migration to bottom chamber containing S1P” value in assay [1] is “not only restored the effect of NEF-ER but also showed significant increase in migration”. Further, the S1P1 surface expression result in assay [2] is on record as “not only restored S1P1 surface expression, but also increased S1P1 surface expression”; in assay [2] (listed as FRAX 597) it was “restored S1P1 surface expression”; in assay [3], “downregulation of S1P1”; in assay [3] (listed as PAK2 inhibitor) it was “downregulation of S1P”.
